Results: patent publication US7601716B2, “Pyridopyrazines and derivatives thereof as ALK and c-Met inhibitors” (Cephalon, Inc., priority 2006, dated 2009)

Molecular target: baculovirus-expressed ALK (Homo sapiens, UniProt Q9UM73)
Assay: ALK Kinase Assay (ELISA/TRF, PLC-γ substrate); note: 1 µM ATP (Km level)
Assay type: biochemical
Settings: read-out: ALK Kinase Inhibition (IC50)
Method: Example compounds were tested for their ability to inhibit the kinase activity of baculovirus-expressed ALK using a modification of the ELISA protocol reported for trkA in Angeles, T. S. et al., Anal. Biochem. 1996, 236, 49-55, which is incorporated herein by reference in its entirety. Phosphorylation of the substrate, phospholipase C-gamma (PLC-γ) generated as a fusion protein with glutathione S-transferase (GST) as reported in Rotin, D. et al., EMBO J. 1992, 11, 559-567, which is incorporated herein by reference in its entirety, was detected with a europium-labeled anti-phosphotyrosine antibody and measured by time-resolved fluorescence (TRF). Briefly, each 96-well plate was coated with 100 μL/well of 10 μg/mL substrate (phospholipase C-γ) in Tris-buffered saline (TBS). […] The reaction was initiated by adding enzyme (30 ng/ml ALK) and was allowed to proceed at 37° C. for 15 minutes. Detection of the phosphorylated product was performed by adding 100 μl/well of Eu-N1 labeled PT66 antibody (Perkin Elmer # AD0041). Incubation at 37° C. then proceeded for one (1) hour, followed by addition of 100 μL enhancement solution (Wallac #1244-105). The plate was gently agitated and after thirty minutes, the fluorescence of the resulting solution was measured using the EnVision 2100 (or 2102) multilabel plate reader (Perkin Elmer).
Data analysis was performed using ActivityBase (IDBS, Guilford, UK). IC50 values were calculated by plotting percent inhibition versus log10 of the concentration of compound and fitting to the nonlinear regression sigmoidal dose-response (variable slope) equation in XLFit (IDBS, Guilford, UK).

baculovirus-expressed ALK, sequence (Q9UM73 19-1620): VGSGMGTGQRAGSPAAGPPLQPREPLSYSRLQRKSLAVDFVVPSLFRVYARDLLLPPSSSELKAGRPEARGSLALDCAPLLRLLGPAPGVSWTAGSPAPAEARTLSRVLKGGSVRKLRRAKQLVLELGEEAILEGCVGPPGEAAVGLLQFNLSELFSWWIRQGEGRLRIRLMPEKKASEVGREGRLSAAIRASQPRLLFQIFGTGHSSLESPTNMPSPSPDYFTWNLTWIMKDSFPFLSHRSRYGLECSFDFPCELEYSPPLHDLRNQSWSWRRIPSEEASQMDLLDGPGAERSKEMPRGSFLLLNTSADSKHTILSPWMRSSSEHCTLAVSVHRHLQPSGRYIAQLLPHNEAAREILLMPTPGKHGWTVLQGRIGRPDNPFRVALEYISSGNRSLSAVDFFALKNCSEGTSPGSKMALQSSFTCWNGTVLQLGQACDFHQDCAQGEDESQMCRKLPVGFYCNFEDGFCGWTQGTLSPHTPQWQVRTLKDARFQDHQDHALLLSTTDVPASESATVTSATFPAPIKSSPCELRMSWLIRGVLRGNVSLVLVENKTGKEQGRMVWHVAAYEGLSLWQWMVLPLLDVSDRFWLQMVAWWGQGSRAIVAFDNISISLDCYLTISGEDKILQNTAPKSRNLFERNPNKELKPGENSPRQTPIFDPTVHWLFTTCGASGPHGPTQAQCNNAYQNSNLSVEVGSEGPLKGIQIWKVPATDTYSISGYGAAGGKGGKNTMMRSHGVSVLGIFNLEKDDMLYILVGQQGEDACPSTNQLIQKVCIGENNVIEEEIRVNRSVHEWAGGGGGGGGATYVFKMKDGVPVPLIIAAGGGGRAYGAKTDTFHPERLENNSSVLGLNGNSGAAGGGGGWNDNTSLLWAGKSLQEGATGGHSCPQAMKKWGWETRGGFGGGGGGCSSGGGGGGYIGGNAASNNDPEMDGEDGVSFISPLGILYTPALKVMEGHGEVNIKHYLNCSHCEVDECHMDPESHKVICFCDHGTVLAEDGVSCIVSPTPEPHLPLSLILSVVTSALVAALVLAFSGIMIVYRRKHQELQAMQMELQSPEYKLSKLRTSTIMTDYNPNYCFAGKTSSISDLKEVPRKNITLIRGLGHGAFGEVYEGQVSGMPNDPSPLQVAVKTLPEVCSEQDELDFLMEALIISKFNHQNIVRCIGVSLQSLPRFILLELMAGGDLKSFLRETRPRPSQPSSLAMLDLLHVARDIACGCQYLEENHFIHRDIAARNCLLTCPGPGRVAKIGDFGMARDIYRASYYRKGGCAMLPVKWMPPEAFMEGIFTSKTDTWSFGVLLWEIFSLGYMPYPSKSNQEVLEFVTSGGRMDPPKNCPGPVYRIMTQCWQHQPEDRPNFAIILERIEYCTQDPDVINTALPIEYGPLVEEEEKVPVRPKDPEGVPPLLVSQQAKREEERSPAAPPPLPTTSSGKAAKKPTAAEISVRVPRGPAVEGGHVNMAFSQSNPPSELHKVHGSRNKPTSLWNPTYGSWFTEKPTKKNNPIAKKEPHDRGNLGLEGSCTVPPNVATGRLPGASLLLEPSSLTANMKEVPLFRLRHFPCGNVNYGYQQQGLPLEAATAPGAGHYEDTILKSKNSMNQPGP

Compound	IC50 [nM]
O=C(NC(c1ccccc1)c1ccccc1)c1ccc(-c2cnc3c(c2)N(Cc2cc(Cl)ccc2C(F)(F)F)CCN3)cc1 [Example 399, N-Benzhydryl-4-{1-[5-chloro-2-(trifluoromethyl)benzyl]-1,2,3,4-tetrahydropyrido[2,3-b]pyrazin-7-yl}benzamide]	1000 to 10000
COc1cccc(CNC(=O)c2cccc(-c3cnc4c(c3)N(Cc3cc(Cl)ccc3C(F)(F)F)CCN4)c2)c1 [Example 353, 3-{1-[5-Chloro-2-(trifluoromethyl)benzyl]-1,2,3,4-tetrahydropyrido[2,3-b]pyrazin-7-yl}-N-(3-methoxybenzyl)benzamide]	1000 to 10000
O=C(NC1Cc2ccccc2C1)c1cccc(-c2cnc3c(c2)N(Cc2cc(Cl)ccc2C(F)(F)F)CCN3)c1 [Example 358, 3-{1-[5-Chloro-2-(trifluoromethyl)benzyl]-1,2,3,4-tetrahydropyrido[2,3-b]pyrazin-7-yl}-N-indan-2-ylbenzamide]	100 to 1000
O=C(NCc1ccc(-c2ccccc2)cc1)c1ccc(-c2cnc3c(c2)N(Cc2cc(Cl)ccc2C(F)(F)F)CCN3)cc1 [Example 425, N-Biphenyl-4-ylmethyl-4-{1-[5-Chloro-2-(trifluoromethyl)benzyl]-1,2,3,4-tetrahydropyrido[2,3-b]pyrazin-7-yl}benzamide]	1000 to 10000
O=C(c1ccc(-c2cnc3c(c2)N(Cc2cc(Cl)ccc2C(F)(F)F)CCN3)cc1)N1CCN(c2ccccc2)CC1 [Example 368, (4-{1-[5-Chloro-2-(trifluoromethyl)benzyl]-1,2,3,4-tetrahydropyrido[2,3-b]pyrazin-7-yl}phenyl)-(4-phenylpiperazin-1-yl)methanone]	100 to 1000
O=C(c1cccc(-c2cnc3c(c2)N(Cc2cc(Cl)ccc2C(F)(F)F)CCN3)c1)N1CCN(c2cnccn2)CC1 [Example 339, (3-{1-[5-Chloro-2-(trifluoromethyl)benzyl]-1,2,3,4-tetrahydropyrido[2,3-b]pyrazin-7-yl}phenyl)-(2,3,5,6-tetrahydro-[1,2′]bipyrazinyl-4-yl)methanone]	100 to 1000

Next, values leading:

IC50 [nM]	Compound
100 to 1000	O=C(c1ccc(-c2cnc3c(c2)N(Cc2cc(Cl)ccc2C(F)(F)F)CCN3)cc1)N1CCN(c2ccc(Cl)cc2)CC1 [Example 370, [4-(4-Chlorophenyl)piperazin-1-yl]-(4-{1-[5-chloro-2-(trifluoromethyl)benzyl]-1,2,3,4-tetrahydropyrido[2,3-b]pyrazin-7-yl}phenyl)methanone]
100 to 1000	Cc1cc(N2CCN(C(=O)c3cccc(-c4cnc5c(c4)N(Cc4cc(Cl)ccc4C(F)(F)F)CCN5)c3)CC2)c2ccccc2n1 [Example 337, (3-{1-[5-Chloro-2-(trifluoromethyl)benzyl]-1,2,3,4-tetrahydropyrido[2,3-b]pyrazin-7-yl}phenyl)-[4-(2-methylquinolin-4-yl)piperazin-1-yl]methanone]
100 to 1000	O=C(NCc1ccccc1)c1ccc(-c2cnc3c(c2)N(Cc2cc(Cl)ccc2C(F)(F)F)CCN3)cc1 [Example 421, N-Benzyl-4-{1-[5-chloro-2-(trifluoromethyl)benzyl]-1,2,3,4-tetrahydropyrido[2,3-b]pyrazin-7-yl}benzamide]
< 100	O=C(c1ccc(-c2cnc3c(c2)N(Cc2cc(Cl)ccc2C(F)(F)F)CCN3)cc1)N1CCN(C(=O)C2CCCO2)CC1 (centres unmarked) [Example 415, (4-{1-[5-Chloro-2-(trifluoromethyl)benzyl]-1,2,3,4-tetrahydropyrido[2,3-b]pyrazin-7-yl}phenyl)-[4-(tetrahydrofuran-2-carbonyl)piperazin-1-yl]methanone]
< 100	O=C(c1cccc(-c2cnc3c(c2)N(Cc2cc(Cl)ccc2C(F)(F)F)CCN3)c1)N1CCC[C@H]1CN1CCCC1 [Example 365, (3-{1-[5-Chloro-2-(trifluoromethyl)benzyl]-1,2,3,4-tetrahydropyrido[2,3-b]pyrazin-7-yl}phenyl)-((S)-2-pyrrolidin-1-ylmethylpyrrolidin-1-yl)methanone]
